One test has as its system HT-29 cell line. Nature of the test: SRB assay, antiproliferative activity against HT-29. In kind it is cell-based, human. To be noted: Homo sapiens; 2 h incubation, SRB assay, HT-29. The procedure: (§1) The human adenocarcinoma cell line, HT-29 (ATCC HTB-38), was cultured in αMEM medium (IITD PAN) supplemented with 10% fetal bovine serum, FBS (Sigma-Aldrich, Taufkirchen, Germany), 100 U/mL penicillin, 100 µg/mL streptomycin antibiotic solution (Sigma-Aldrich, Taufkirchen, Germany), and 2 mM glutamine solution (Sigma-Aldrich, Taufkirchen, Germany). Cells from less than 20 passages were used for the study. In turn, preadipocytes from mouse embryos with the morphology of fibroblast cells, line 3T3-L1 (ATCC CL-173), were cultured in DMEM high-glucose medium (Life Technologies Corporation, Carlsbad, CA, USA) with the same supplements as above. Cells from less than 14 passages were used for the study. Both tested cell lines were grown at 37 °C in 5% CO2.
(§2) The effect of O-alkyl derivatives of naringenin and their oximes on eukaryotic cells was checked using a slightly modified SRB test described earlier. Firstly, HT-29 (1 × 10^5 cells/mL) and 3T3-L1 (5 × 10^4 cells/mL) cell lines were incubated in adherent microtiter plates under the conditions described above. The cells were then treated for 2 h with the tested compounds 1a–10a and 1b–10b at concentrations of 1, 5, 10, 25, 50, 75, and 100 µg/mL each. After this time, the medium was removed and replaced with one containing 50% (wt/vol) trichloroacetic acid (TCA; Sigma-Aldrich, Taufkirchen, Germany). Following 1 h of incubation at 4 °C, the plate was rinsed with water, and then an acidic solution of 0.4% sulforhodamine B (SRB) (Sigma-Aldrich, Taufkirchen, Germany), was added to the dried wells and incubated in the dark for half an hour. At the end of this time, the SRB solution was replaced by 1% (vol/vol) acetic acid, and the stained protein precipitate was dissolved in 10 mM Tris base solution (pH 10.5). Absorbance was measured at 560 nm in a plate reader (GloMax Discover Microplate Reader, Promega).
(§3) The cytotoxic effect of O-alkyl derivatives of naringenin and their oximes on eukaryotic cells was expressed as the concentration of the tested compounds at which 50% growth inhibition of the tested cell lines was observed. Values were presented in the form of the survival index (SI)–IC50. All determinations were repeated in three independent experiments, each performed in three technical replicates. Moreover, the effect of DMSO (Sigma-Aldrich, Taufkirchen, Germany), the solvent present in all the initial solutions of the tested compounds, on the growth of the cell lines used in the study was also verified.

A further test concerns 3T3-L1 cell line. Nature of the test: SRB assay, antiproliferative activity against 3T3-L1. In kind it is cell-based, mouse. To be noted: Mus musculus; 2 h incubation, SRB assay, 3T3-L1. The procedure:
as §1, §2, §3

The subject of test [1] is Escherichia coli K12 (ATCC 10798). Nature of the test: Adhesion assay, static conditions: E. coli to 3T3-L1 cell line. Format: cell-based. The procedure:
The study used two reference strains, Escherichia coli K12 (ATCC 10798) and Enterococcus faecalis (ATCC 29212), obtained from the American Type Culture Collection. Both strains were stored in trypticase soy broth (TSB; OXOID, Basingstoke, UK) with the addition of 30% glycerol at −70 °C in the museum resources of the Department of Microbiology at the Wroclaw Medical University.
For studies determining the interaction of bacteria with eukaryotic cells, suspensions of the tested strains were prepared in Luria broth (LB, Becton, Dickinson and Company, USA) medium with a bacterial density of 6 × 10^8 CFU/mL.
The adhesion ability of the tested bacterial strains to HT-29 and 3T3-L1 cell lines was determined by an in vitro adhesion assay as described previously. Eukaryotic cells were infected with prokaryotic cells in the presence of the examined compounds in pre-selected concentrations at an MOI (multiplicity of infection) ratio of 50. Cells were exposed to the tested strains and compounds for 2 h. After this time, unbound bacteria were removed by washing with PBS (Life Technologies Corporation, Carlsbad, CA, USA). The lysates acquired by cell lysis (0.5% Triton X-100 in LB): 90 min, 37 °C, 5% CO2 atmosphere, were then seeded onto TSA and MC media for E. faecalis and E. coli, respectively. The assays were performed in at least three independent experiments (cells from subsequent passages), each in triplicate. A control without tested compounds was set for each strain.

Test [2] has the same test system. Nature of the test: Bioflux microfluidic adhesion: E. coli to 3T3-L1 cell line. To be noted: 50 µg/mL, control 0.37 ± 0.13. Format: cell-based. The procedure: (§4) Determination of the impact of a dynamic medium flow on the adhesive capacity of bacteria was performed using the Bioflux 1000Z (Fluxion, San Francisco, CA, USA) with a coupled microscope environmental chamber (Pecton Incubator XL S1, Carl Zeiss, Jena, Germany), enabling the maintenance of 37 °C and microaerophilic conditions. At the very beginning, all channels of dedicated microfluidic plates (Fluxion, San Francisco, CA, USA) were flushed with 100 µL of αMEM or DMEM high-glucose medium with supplements (further named “cell line medium”; for details of the supplementation see “Cell culture procedure”) applying an intensive flow of 10 dyne/cm^2 for 10 s. After unblocking the lumen of the channels, the inlet and outlet wells were emptied, and 20 µL of 100 µg/mL fibronectin solution (Sigma-Aldrich, Taufkirchen, Germany) was added to each inlet channel. The medium was turned in the outlet direction at a flow rate of 1 dyne/cm^2 for 1 min. After this step, the plate was left for a 1 h incubation period to allow fibronectin to be absorbed on the surface of the microcapillaries. […] After completing this stage, photographs of the microcapillaries containing the tested biological materials were taken using an inverted fluorescence microscope (GabH, Jena, Germany) and the Bioflux Montage software (Fluxion, San Francisco, CA, USA). […]

The test system is the same in test [3]. Nature of the test: Bioflux microfluidic adhesion: E. coli to HT-29 cell line. Format: cell-based. The following applies: 50 µg/mL, control 0.65 ± 0.07. The procedure:
as §4

Test [4] concerns Enterococcus faecalis (ATCC 29212). Nature of the test: Bioflux microfluidic adhesion: E. faecalis to 3T3-L1 cell line. In kind it is cell-based. To be noted: 50 µg/mL, control 0.29 ± 0.11. The procedure: as §4
Test [5] shares this test system. Nature of the test: Bioflux microfluidic adhesion: E. faecalis to HT-29 cell line. Format: cell-based. To be noted: 50 µg/mL, control 1.55 ± 0.15. The procedure:
as §4

The next test relates to cell membranes. On the set-up: method as in PMID 10839220. The following applies: cited from earlier work.

Take `CCCCCCCCCOc1ccc([C@@H]2CC(=NO)c3c(O)cc(OCCCCCCCCC)cc3O2)cc1` [Compound 8b, 7,4’-di-O-nonylnaringenin oxime]: the IC50 in the test on HT-29 cell line and in the test on 3T3-L1 cell line was > 100 µg/mL in each case. Besides, the “effect on adhesion of E. coli to 3T3-L1 (in words)” value in test [1] is recorded as “strongly enhance”. In addition, the “BB/EC ratio (area of bacterial biomass adhered to the surface of the eukaryotic cells)” value in test [2] is given as 0.6 ± 0.12. Besides, the BB/EC ratio was determined as 1.03 ± 0.06 in test [3], 0.28 ± 0.15 in test [4] and 1.36 ± 0.08 in test [5].
Consider `O=C1C[C@@H](c2ccc(O)cc2)Oc2cc(O)cc(O)c21` [NG, naringenin], for which the IC50 with HT-29 cell line and with 3T3-L1 cell line was > 100 µg/mL each time. In addition, the “concentration at which the membrane-solidifying effect is revealed” value in the test on cell membranes is ≥ 2.5 µg/mL.

The record behind these values is publication PMC10294875, “Ether Derivatives of Naringenin and Their Oximes as Factors Modulating Bacterial Adhesion” (Antibiotics, 2023).
